These results are taken from PubChem BioAssay AID588764 (Broad Institute, 2011).

Results filed as inconclusive are left out. The source made the active and inactive calls. How the calls were made is not given here.

This test concerns the target Histone acetyltransferase RTT109 (Candida albicans (strain SC5314 / ATCC MYA-2876)) (UniProt Q5AAJ8). Put plainly: Rtt109/Vps75 acetyltransferase inhibitor potency, dose response, biochemical, cherry-picked hits, plate reader (AID 588764). Conditions: Rtt109/Vps75 HAT activity; for activity change, negative = inhibition: at 19.5 µM (top of the series).

Sequence of Histone acetyltransferase RTT109 (Candida albicans (strain SC5314 / ATCC MYA-2876)) (Q5AAJ8 whole entry, looked up): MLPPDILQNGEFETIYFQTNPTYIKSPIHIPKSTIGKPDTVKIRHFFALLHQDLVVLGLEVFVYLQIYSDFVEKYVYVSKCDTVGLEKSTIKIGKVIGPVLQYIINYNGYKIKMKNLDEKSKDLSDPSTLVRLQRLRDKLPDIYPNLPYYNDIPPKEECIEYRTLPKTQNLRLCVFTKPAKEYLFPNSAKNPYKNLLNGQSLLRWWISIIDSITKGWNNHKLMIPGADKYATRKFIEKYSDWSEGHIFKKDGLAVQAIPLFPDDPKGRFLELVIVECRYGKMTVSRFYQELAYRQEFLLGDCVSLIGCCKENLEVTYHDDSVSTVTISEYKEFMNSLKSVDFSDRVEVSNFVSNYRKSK

Broadly, the AC50 is the concentration giving half of the maximal activity seen. For `CC(=O)Nc1ccc(NC(=O)c2nc(S(=O)(=O)Cc3ccccc3)ncc2Cl)cc1`, the AC50 is 6.3 µM.

As for `COCCNS(=O)(=O)c1ccc2c(c1)C(=NO)c1cc(S(=O)(=O)NCCOC)ccc1-2`, the “activity change, negative = inhibition” value is “inactive”. The same measure, in the same setting: next, `COc1ccc(C(=O)NNC(=O)c2ccncc2)cc1`: “inactive”. In the case of `CC1=C(C)/C(=N\OS(=O)(=O)c2ccc(C)cc2)C=CC1=O`, the AC50 was 8.6 µM. For `Cc1[nH]n(-c2ccccc2)c(=O)c1C=NC1CCCCC1`, the “activity change, negative = inhibition” value is “inactive”.

With `O=C(CSc1n[nH]c(-c2ccccc2Cl)n1)NC1CCCCC1`, the “activity change, negative = inhibition” value was “inactive”. With `O=C(O)CSCC(=O)Nc1cc(C(F)(F)F)ccc1Cl`, the “activity change, negative = inhibition” value is “inactive”. As to `O=C(Nc1ccc(Oc2cccnc2)cc1)C1CCN(Cc2cc(Cl)ccc2O)CC1`, the “activity change, negative = inhibition” value was “inactive”. As to `CCn1c(C)c(CS(=O)(=O)c2ccccc2)[nH]c1=O`, the AC50 is 11.3 µM.

Turning to `CCC(=O)Nc1cc(C)c(OC)c(C)c1`, the “activity change, negative = inhibition” value is “inactive”.

With `CCOC(=O)c1c(C)oc2c1c(C=NCCO)c(O)c1ccccc12`, the “activity change, negative = inhibition” value was “inactive”. As for `Cc1ccc(C(=O)NCC(=O)OCCOc2ccccc2Cl)cc1`, the “activity change, negative = inhibition” value is “inactive”. For the compound `C[C@H]1CC[C@H]2NCCN[C@H]2C1`, the “activity change, negative = inhibition” value is “inactive”. For the compound `CCOC(=O)/C=C/C(=O)Nc1cccc([N+](=O)[O-])c1`, the AC50 is 5.91 µM.

Consider `Cc1ccccc1N1C(S)=C(C#N)C(=O)NC12CCCCC2`, for which the “activity change, negative = inhibition” value is “inactive”. The same measure, in the same setting: next, `C#CCOCCOCCOCCNc1nc(N2CCN(C(=O)[C@H](CCCCN)n3cc([C@@H](N)CC(C)C)nn3)CC2)nc(N2CCN(C(=O)[C@H](CCCCN)n3cc([C@@H](N)CC(C)C)nn3)CC2)n1`: “inactive”; `Cc1ccc2nc(N(CCCN(C)C)C(=O)c3sc4ccccc4c3Cl)sc2c1`: “inactive”.

On to `O=C(CCc1ccc(S(=O)(=O)N2CCOCC2)cc1)N/N=C/c1ccc(O)c(O)c1O`, for which the AC50 was 9.29 µM.

As to `Oc1cc2c(cc1O)C1c3ccc(O)c(O)c3OCC1(O)C2` (stereo not given), the AC50 was 6.08 µM. On the same count and under the same terms, next, `CCN(CC)C(=S)SSC(=S)N(CC)CC`: 3.26 µM. For `COc1ccc(/C=C2/SC(=O)N(NS(=O)(=O)c3ccccc3)C2=S)cc1OC`, the “activity change, negative = inhibition” value was “inactive”. In the case of `Nc1nnc(SC2CC(=O)N(c3ccccc3)C2=O)s1` (stereo not given), the AC50 was 13.6 µM. In the case of `O=C(/C=C/c1ccc(Cl)cc1)NCc1ccncc1`, the “activity change, negative = inhibition” value is “inactive”.

Turning to `CCCC1(c2ccccc2)NC(=O)N(CC(=O)N(C)Cc2c(F)cccc2Cl)C1=O` (stereo not given), the AC50 was 2.79 µM.

On to `Cc1cc(C)c2c(=O)n(CC(=O)N3CCC(N4CCCCC4)CC3)sc2n1`, for which the AC50 is 4.72 µM.

As for `CCOC(=O)c1cc2c(N)c(C(=O)c3cc(C#N)c(SC)nc3C)sc2nc1C`, the “activity change, negative = inhibition” value is “inactive”. Same read-out and setting: next, `COc1cc(-c2nnc(SCC(=O)OC3CCCCC3)o2)cc(OC)c1OC`: “inactive”. For the compound `COc1ccc(OC)c2sc(N(CCCN(C)C)C(=O)CCS(=O)(=O)c3ccccc3)nc12`, the AC50 was 20.1 µM.

As for `CCN1/C(=C/c2ccc3cc(C)cc(C)c3[n+]2CC)Sc2cc(C)ccc21`, the “activity change, negative = inhibition” value is “inactive”. `Cc1cc(C)c2sc(C)[n+](CCCS(=O)(=O)[O-])c2c1`: the “activity change, negative = inhibition” value was “inactive”. Regarding `N#Cc1c(Nc2ccccc2)s[nH]c1=O`, the concentration at half-maximal activity (AC50) was 5.84 µM. `Cc1cc(CN2C(=O)c3ccccc3C2=O)no1`: the “activity change, negative = inhibition” value was “inactive”.

Regarding `Fc1ccc(NC(=S)Nc2ccc(Br)cc2)cc1`, the “activity change, negative = inhibition” value is “inactive”. The same measure, in the same setting: next, `CN(C)C(CNC(=O)c1ccc(C(=O)c2ccccc2)cc1)c1ccccc1` (stereo not given): “inactive”; `COc1ccccc1-n1cnnc1SCC(=O)NC1CCCC1`: “inactive”; `O=C(O)C(Cc1ccccc1)N1C(=O)/C(=C/c2cccs2)SC1=S` (stereo not given): “inactive”. In the case of `Oc1cc(O)c(CN2CCOCC2)cc1CN1CCOCC1`, the AC50 is 19.5 µM.

On to `COc1cccc2c1Oc1ncccc1N(C(=O)CCC(=O)NCc1ccc(F)cc1)C2`, for which the “activity change, negative = inhibition” value is “inactive”.

Turning to `COc1cccc(-c2ccc(C#N)c(SCC(=O)NCCc3ccc(Cl)cc3)n2)c1`, the “activity change, negative = inhibition” value is “inactive”. The same measure, in the same setting: next, `CN(C)c1ccc(/C=C/c2cc[n+](C)c3ccccc23)cc1`: “inactive”. The same measure, in the same setting: next, `Clc1ccc(COC(Cn2ccnc2)c2ccc(Cl)cc2Cl)c(Cl)c1` (stereo not given): “inactive”.

With `CC(=O)N(c1ccc2oc(=O)sc2c1)S(=O)(=O)c1cccc2cccnc12`, the “activity change, negative = inhibition” value is “inactive”.

As for `O=C(NCc1ccncc1)C(=O)NCC(c1ccco1)N1CCN(c2ccc(F)cc2)CC1` (stereo not given), the “activity change, negative = inhibition” value is “inactive”.

As for `Cc1nn(S(=O)(=O)c2ccc(C(C)C)cc2)c(C)c1S(=O)(=O)N1CCOCC1`, the “activity change, negative = inhibition” value was “inactive”. Still for that read-out and setting: next, `CCOC(=O)C(C)N1C(=O)S/C(=C/c2ccc3c(c2)n(C)c(=O)n3C)C1=O` (stereo not given): “inactive”. Take `Cc1ccc(/C=C/C(=O)NCc2ccc(S(N)(=O)=O)cc2)o1`: the AC50 is 10.7 µM. As for `COC(=O)c1c(NC(=O)C2CC(C)=C(C)CC2C(=O)O)sc2c1CCCCC2` (stereo not given), the “activity change, negative = inhibition” value was “inactive”. Still for that read-out and setting: next, `O=C(NNc1ccccc1)C(=O)NNS(=O)(=O)c1ccc(CCCl)cc1`: “inactive”.

Consider `CCOC(=O)c1c(CNCCN(CC)CC)n(C)c2cc(Br)c(OC)cc12`, for which the “activity change, negative = inhibition” value was “inactive”.

As to `Clc1nc(NCc2cccnc2)nc(N2CCOCC2)n1`, the “activity change, negative = inhibition” value was “inactive”. With `O=C1OC(NC(=O)c2ccccc2)C(n2cc(CO)nn2)=C1Cl` (stereo not given), the AC50 is 5.2 µM. Consider `Cc1ccc(CN2CCN(CC(=O)NCc3ccccc3)CC2)cc1`, for which the “activity change, negative = inhibition” value is “inactive”. Take `CC1(C)CC2(CC(c3ccccc3F)c3ccc(O)c(O)c3O2)NC(=S)N1` (stereo not given): the AC50 is 19.7 µM. As to `O=C(NCC(=O)N1CCCCC1)c1ccc2ccccc2c1`, the “activity change, negative = inhibition” value is “inactive”.

Regarding `Clc1nc(Nc2ccccc2)nc(Nc2ccccc2)n1`, the “activity change, negative = inhibition” value was “inactive”. Consider `O=C(C1CCOCC1)N1CCCC(N2CCN(c3cccc(C(F)(F)F)c3)CC2)C1` (stereo not given), for which the “activity change, negative = inhibition” value is “inactive”. On the same count and under the same terms, next, `CCCCCCCCCCn1c2c(c(=N)c3c1CCC3)CCC2`: “inactive”; `O=C(NCc1ccc2c(c1)OCO2)c1ccc(CS(=O)Cc2cccc(Cl)c2)o1` (stereo not given): “inactive”. Consider `CN1CCc2cccc3c2[C@H]1Cc1ccc(O)c(O)c1-3`, for which the AC50 was 18.4 µM. In the case of `CC1Sc2ccccc2N(CC(=O)N(C(C)C)C(C)C)C1=O` (stereo not given), the “activity change, negative = inhibition” value was “inactive”. Same read-out and setting: next, `CCN(CC)CCCNc1nc2cc(OC)c(OC)cc2c2nc(-c3cccnc3)nn12`: “inactive”; `NCC12CC3CC(C1)CC(c1ccc(Cl)cc1)(C3)C2`: “inactive”.

Turning to `CS(=O)(=O)c1ncc(Cl)c(C(=O)Nc2ccc(N3CCOCC3)cc2)n1`, the AC50 was 8.27 µM. Turning to `O=C(/C=C/Nc1ccc([N+](=O)[O-])cc1Br)c1cccc2ccccc12`, the “activity change, negative = inhibition” value is “inactive”.

As to `Cc1ccc(NC(=S)N(CCCN2CCCC2)Cc2cccn2Cc2ccc(Cl)cc2)cc1C`, the “activity change, negative = inhibition” value was “inactive”.

Consider `CCN1/C(=C/c2ccc3cc(C)ccc3[n+]2CC)Sc2cc(C)ccc21`, for which the “activity change, negative = inhibition” value was “inactive”. For `CN(C(=O)c1ccc(N2CCCCC2)c([N+](=O)[O-])c1)C1(C)CCS(=O)(=O)C1` (stereo not given), the “activity change, negative = inhibition” value is “inactive”. Same read-out and setting: next, `CC(C)C(C(=O)Nc1cccnc1)N1C(=O)c2ccccc2C1=O` (stereo not given): “inactive”. Regarding `CCc1nnc(NC(=O)CSc2nnc(C3CCCCC3)n2-c2cccc(Cl)c2)s1`, the “activity change, negative = inhibition” value was “inactive”.

In the case of `Fc1ccccc1C1CC(c2ccco2)=Nc2ccccc2S1` (stereo not given), the “activity change, negative = inhibition” value is “inactive”.

Regarding `Nc1c(C(=O)c2ccccc2)oc2ccc([N+](=O)[O-])cc12`, the “activity change, negative = inhibition” value is “inactive”. Still for that read-out and setting: next, `CC(C)(C)C1CCc2c(sc(NC(=O)CSc3nnc(-c4ccccc4)o3)c2C#N)C1` (stereo not given): “inactive”.

Consider `CN(C)S(=O)(=O)n1cc(/C=C(\NC(=O)c2ccccc2)C(=O)N2CCCC2)c2ccccc21`, for which the “activity change, negative = inhibition” value was “inactive”. On the same count and under the same terms, next, `O=C1/C(=C/c2ccc(F)cc2)SC(=S)N1CC(=O)N1CCCCC1c1cccnc1` (stereo not given): “inactive”; `CCCC[n+]1c(C)sc2cc(OC)ccc21`: “inactive”. With `O=C(O)COc1ccccc1O`, the “activity change, negative = inhibition” value was “inactive”. For the compound `O=C(COC(=O)Cc1ccccc1[N+](=O)[O-])Nc1nnc(-c2ccccc2)o1`, the “activity change, negative = inhibition” value is “inactive”. Same read-out and setting: next, `CN(CC(=O)Nc1ccc(Cl)cc1)C(=O)c1cccc(S(=O)(=O)NCc2ccccc2)c1`: “inactive”; `Cc1ccc2sc(NNC(=O)C3=COCCO3)nc2c1C`: “inactive”. On the same count and under the same terms, next, `CC(C)OC(=O)N(C)c1ccc(C(O)(C(F)(F)F)C(F)(F)F)cc1`: “inactive”. Same read-out and setting: next, `CC1CCN(c2nc(CN3CCCCC3)nc3scc(-c4ccccc4)c23)CC1`: “inactive”. In the case of `COc1ccc(-[n+]2c(C)cc(/C=C3\Sc4ccccc4N3C)cc2C)cc1`, the “activity change, negative = inhibition” value was “inactive”. The same measure, in the same setting: next, `COc1ccc(NC(=O)c2nc3ccccc3s2)cc1`: “inactive”. Still for that read-out and setting: next, `COc1ccc(CC(NC(C)=O)C(=O)NC2CCN(c3nc(C)cc(C)c3C#N)CC2)cc1` (stereo not given): “inactive”. As to `N=C1c2ccccc2CN1NC(=O)c1ccccc1`, the “activity change, negative = inhibition” value is “inactive”.
